23 molecules from the OPERA property sets (Mansouri et al. 2018) can be followed below.

Values after ≈ are worked out from the molar mass of the structure shown.

For the first series the following is noted: 20 °C.
On to `O=[N+]([O-])OCC(CO[N+](=O)[O-])O[N+](=O)[O-]`, for which the solubility (as a rule, the dissolved amount per volume that the medium holds) was 6.08 mM (≈ 1.38 mg/mL). Same read-out and setting: the result for `O=C1c2c(O)cccc2[C@H]([C@@H]2O[C@H](CO)[C@@H](O)[C@H](O)[C@H]2O)c2cc(CO)cc(O)c21` reads 19.8 mM (≈ 8.3 mg/mL); that for `O=C1CC2CC[C@H]1C2`, 17.5 mM (≈ 1.93 mg/mL).

Staying with this series, now noted: 23 °C.
With `Nc1ccc(N)cc1`, the solubility stood at 342 mM (≈ 37 mg/mL).

Still in this series, the particulars now being: 24 °C.
For `Nc1cccc([N+](=O)[O-])c1`, the solubility turned out to be 8.69 mM (≈ 1.2 mg/mL).

Staying with this series, now noted: 25 °C.
As to `CCN(CC)C(=O)CCC(=O)O`, the solubility was determined as 161 mM (≈ 27.9 mg/mL). As to `O=C1c2cccc(S(=O)(=O)O)c2C(=O)c2c1cccc2S(=O)(=O)O`, the solubility turned out to be 18100 mM (≈ 6660 mg/mL). Same read-out and setting: under `Cc1cc(O)c2c(O)c3c(O)cccc3cc2c1` stands 0.874 mM (≈ 0.21 mg/mL); under `C=CC=O`, 3780 mM (≈ 212 mg/mL). `O=C(O)c1ccccc1Cl` came in with a solubility of 13.3 mM (≈ 2.09 mg/mL). Regarding `NC(=O)c1ccccc1`, the solubility came to 111 mM (≈ 13.5 mg/mL). Turning to `O=C1c2cccc(S(=O)(=O)O)c2C(=O)c2cccc(S(=O)(=O)O)c21`, the solubility worked out at 1810 mM (≈ 666 mg/mL).

Turning to `CC(=O)Oc1ccc2c3c1O[C@H]1[C@@H](OC(C)=O)C=C[C@H]4[C@@H](C2)N(C)CC[C@@]341`, the solubility was 1.61 mM (≈ 0.595 mg/mL). In the case of `NC(N)=S`, the solubility turned out to be 1870 mM (≈ 142 mg/mL).

Turning to `CN1C2CCC1CC(OC(=O)c1ccccc1)C2` (stereo not drawn), the solubility came out at 6.93 mM (≈ 1.7 mg/mL). Still for that read-out and setting: under `O=C1NS(=O)(=O)c2ccccc21` stands 21.8 mM (≈ 4 mg/mL). `O=C1C[C@@H]2OCC=C3CN4CC[C@]56c7ccccc7N1[C@H]5[C@H]2[C@H]3C[C@H]46` displayed a solubility of 0.478 mM (≈ 0.16 mg/mL). Same read-out and setting: the result for `O=Cc1ccccc1[N+](=O)[O-]` reads 15.4 mM (≈ 2.32 mg/mL); that for `CCCCCCCCCCC(C(=O)O)C(=O)O`, 0.102 mM (≈ 0.025 mg/mL); that for `O=Cc1cccc([N+](=O)[O-])c1`, 10.8 mM (≈ 1.63 mg/mL). Molecule `O=C(O)c1cccc(Cl)c1` had a solubility of 2.87 mM (≈ 0.45 mg/mL). `CC[C@H]1C[N@@]2CC[C@H]1C[C@H]2[C@H](O)c1ccnc2ccc(OC)cc12`: the solubility was 0.888 mM (≈ 0.29 mg/mL). `CCN1C[C@]2(COC)[C@H](O)C[C@H](OC)[C@]34C1[C@H]([C@H](OC)[C@H]23)[C@]1(OC(C)=O)[C@H]2[C@@H](OC(=O)c3ccccc3)[C@](O)(C[C@H]24)[C@@H](OC)[C@@H]1O` had a solubility of 0.48 mM (≈ 0.31 mg/mL).
